Consider 35 compounds from patent publication US12522602B2, “Derivatives having 2,3-dihydro-1H-indene or 2,3-dihydrobenzofuran moiety or pharmaceutically acceptable salt thereof and pharmaceutical compositions comprising the same” (YUHAN CORPORATION, priority 2019, dated 2026).

As usually defined, the IC50 is the concentration that inhibits the measured activity by half. Read a high IC50 as weaker potency in that assay.

Each structure is given as a SMILES string.

In one experiment the test system is GM1 production in Jurkat cells. The experiment in a line: cells.
Settings: not given
Type of experiment: cell-based.
Consider `CC1(C)Cc2ccc(-c3cccc(OC(F)(F)F)c3)cc2C1NC(=O)O[C@@H]1CN2CCC1CC2` (stereo partly drawn) [Example 56, (S)-quinuclidin-3-yl (2,2-dimethyl-6-(3-(trifluoromethoxy)phenyl)-2,3-dihydro-1H-inden-1-yl)carbamate], for which the IC50 was 210 nM.
As for `CC1(C)Cc2ccc(-c3cccc(OC(F)(F)F)c3)cc2C1NC(=O)O[C@@H]1CN2CCC1CC2` (stereo partly drawn) [Example 80, (S)-quinuclidin-3-yl (2,2-dimethyl-6-(3-(trifluoromethoxy)phenyl)-2,3-dihydro-1H-inden-1-yl)carbamate], the IC50 was 4.1 nM.

The experiment is the same for the next values; noted with them: Homo sapiens, Jurkat, 72 h.
`O=C(NC1CCc2ccc(-c3ccc(Cl)c(Cl)c3)cc21)O[C@@H]1CN2CCC1CC2` (stereo partly drawn) [Example 47, (S)-quinuclidin-3-yl (6-(3,4-dichlorophenyl)-2,3-dihydro-1H-inden-1-yl)carbamate] yielded an IC50 of 26.6 nM.
`O=C(NC1CCc2ccc(-c3cc(Cl)cc(Cl)c3)cc21)O[C@@H]1CN2CCC1CC2` (stereo partly drawn) [Example 48, (S)-quinuclidin-3-yl (6-(3,5-dichlorophenyl)-2,3-dihydro-1H-inden-1-yl)carbamate] showed an IC50 of 65.7 nM.
On to `CC1(C)Cc2ccc(-c3ccc(F)cc3)cc2C1NC(=O)O[C@@H]1CN2CCC1CC2` (stereo partly drawn) [Example 49, (S)-quinuclidin-3-yl (6-(4-fluorophenyl)-2,2-dimethyl-2,3-dihydro-1H-inden-1-yl)carbamate], for which the IC50 stood at 61.4 nM.
In turn, `CC1(C)Cc2ccc(-c3ccc(Cl)cc3)cc2C1NC(=O)O[C@@H]1CN2CCC1CC2` (stereo partly drawn) [Example 50, (S)-quinuclidin-3-yl (6-(4-chlorophenyl)-2,2-dimethyl-2,3-dihydro-1H-inden-1-yl)carbamate] returned an IC50 of 52.3 nM.
Same read-out and setting: in the case of `CC1(C)Cc2ccc(-c3ccc(C(F)(F)F)cc3)cc2C1NC(=O)O[C@@H]1CN2CCC1CC2` (stereo partly drawn) [Example 51, (S)-quinuclidin-3-yl (2,2-dimethyl-6-(4-(trifluoromethyl)phenyl)-2,3-dihydro-1H-inden-1-yl)carbamate] it was 30.2 nM.
Compound `CC1(C)Cc2ccc(-c3ccc(OC(F)(F)F)cc3)cc2C1NC(=O)O[C@@H]1CN2CCC1CC2` (stereo partly drawn) [Example 52, (S)-quinuclidin-3-yl (2,2-dimethyl-6-(4-(trifluoromethoxy)phenyl)-2,3-dihydro-1H-inden-1-yl)carbamate] gave an IC50 of 82.3 nM.
Still for that read-out and setting: in the case of `CC1(C)Cc2ccc(-c3cccc(F)c3)cc2C1NC(=O)O[C@@H]1CN2CCC1CC2` (stereo partly drawn) [Example 53, (S)-quinuclidin-3-yl (6-(3-fluorophenyl)-2,2-dimethyl-2,3-dihydro-1H-inden-1-yl)carbamate] it was 80 nM; in that of `CC1(C)Cc2ccc(-c3cccc(Cl)c3)cc2C1NC(=O)O[C@@H]1CN2CCC1CC2` (stereo partly drawn) [Example 54, (S)-quinuclidin-3-yl (6-(3-chlorophenyl)-2,2-dimethyl-2,3-dihydro-1H-inden-1-yl)carbamate], 161 nM; in that of `CC1(C)Cc2ccc(-c3cccc(C(F)(F)F)c3)cc2C1NC(=O)O[C@@H]1CN2CCC1CC2` (stereo partly drawn) [Example 55, (S)-quinuclidin-3-yl (2,2-dimethyl-6-(3-(trifluoromethyl)phenyl)-2,3-dihydro-1H-inden-1-yl)carbamate], 173 nM.
Still for that read-out and setting: in the case of `CC1(C)Cc2ccc(-c3ccccc3F)cc2C1NC(=O)O[C@@H]1CN2CCC1CC2` (stereo partly drawn) [Example 57, (S)-quinuclidin-3-yl (6-(2-fluorophenyl)-2,2-dimethyl-2,3-dihydro-1H-inden-1-yl)carbamate] it was 49.9 nM; in that of `CC1(C)Cc2ccc(-c3ccccc3Cl)cc2C1NC(=O)O[C@@H]1CN2CCC1CC2` (stereo partly drawn) [Example 58, (S)-quinuclidin-3-yl (6-(2-chlorophenyl)-2,2-dimethyl-2,3-dihydro-1H-inden-1-yl)carbamate], 87.8 nM; in that of `CC1(C)Cc2ccc(-c3ccccc3C(F)(F)F)cc2C1NC(=O)O[C@@H]1CN2CCC1CC2` (stereo partly drawn) [Example 59, (S)-quinuclidin-3-yl (2,2-dimethyl-6-(2-(trifluoromethyl)phenyl)-2,3-dihydro-1H-inden-1-yl)carbamate], 164 nM.
On the same count and under the same terms, the same measure for `Cc1ccc(-c2ccc3c(c2)C(NC(=O)O[C@@H]2CN4CCC2CC4)C(C)(C)C3)cc1` (stereo partly drawn) [Example 60, (S)-quinuclidin-3-yl (2,2-dimethyl-6-(p-tolyl)-2,3-dihydro-1H-inden-1-yl)carbamate]: 112 nM; for `CC1(C)Cc2ccc(-c3ccc(OC(F)F)cc3)cc2C1NC(=O)O[C@@H]1CN2CCC1CC2` (stereo partly drawn) [Example 61, (S)-quinuclidin-3-yl (6-(4-(difluoromethoxy)phenyl)-2,2-dimethyl-2,3-dihydro-1H-inden-1-yl)carbamate]: 39.6 nM; for `CC1(C)Cc2ccc(-c3ccc(F)c(F)c3)cc2C1NC(=O)O[C@@H]1CN2CCC1CC2` (stereo partly drawn) [Example 62, (S)-quinuclidin-3-yl (6-(3,4-difluorophenyl)-2,2-dimethyl-2,3-dihydro-1H-inden-1-yl)carbamate]: 103 nM.
Compound `CC1(C)Cc2ccc(-c3ccc(F)cc3F)cc2C1NC(=O)O[C@@H]1CN2CCC1CC2` (stereo partly drawn) [Example 63, (S)-quinuclidin-3-yl (6-(2,4-difluorophenyl)-2,2-dimethyl-2,3-dihydro-1H-inden-1-yl)carbamate] returned an IC50 of 117 nM.
Still for that read-out and setting: the same measure for `CC1(C)Cc2ccc(-c3cccc(F)c3F)cc2C1NC(=O)O[C@@H]1CN2CCC1CC2` (stereo partly drawn) [Example 64, (S)-quinuclidin-3-yl (6-(2,3-difluorophenyl)-2,2-dimethyl-2,3-dihydro-1H-inden-1-yl)carbamate]: 74.7 nM; for `CC1(C)Cc2ccc(-c3cc(F)ccc3F)cc2C1NC(=O)O[C@@H]1CN2CCC1CC2` (stereo partly drawn) [Example 65, (S)-quinuclidin-3-yl (6-(2,5-difluorophenyl)-2,2-dimethyl-2,3-dihydro-1H-inden-1-yl)carbamate]: 56.2 nM.
The same measure, in the same setting: in the case of `CC1(C)Cc2ccc(-c3cc(F)cc(F)c3)cc2C1NC(=O)O[C@@H]1CN2CCC1CC2` (stereo partly drawn) [Example 66, (S)-quinuclidin-3-yl (6-(3,5-difluorophenyl)-2,2-dimethyl-2,3-dihydro-1H-inden-1-yl)carbamate] it was 128 nM; in that of `CC1(C)Cc2ccc(-c3ccc(F)c(F)c3F)cc2C1NC(=O)O[C@@H]1CN2CCC1CC2` (stereo partly drawn) [Example 67, (S)-quinuclidin-3-yl (2,2-dimethyl-6-(2,3,4-trifluorophenyl)-2,3-dihydro-1H-inden-1-yl)carbamate], 144 nM; in that of `CC1(C)Cc2ccc(-c3cc(Cl)cc(Cl)c3)cc2C1NC(=O)O[C@@H]1CN2CCC1CC2` (stereo partly drawn) [Example 69, (S)-quinuclidin-3-yl (6-(3,5-dichlorophenyl)-2,2-dimethyl-2,3-dihydro-1H-inden-1-yl)carbamate], 400 nM.
In turn, `CC1(C)Cc2ccc(-c3ccc(Cl)c(Cl)c3)cc2C1NC(=O)O[C@@H]1CN2CCC1CC2` (stereo partly drawn) [Example 70, (S)-quinuclidin-3-yl (6-(3,4-dichlorophenyl)-2,2-dimethyl-2,3-dihydro-1H-inden-1-yl)carbamate] showed an IC50 of 70.9 nM.
For `CC1(C)Cc2ccc(-c3cc(Cl)ccc3Cl)cc2C1NC(=O)O[C@@H]1CN2CCC1CC2` (stereo partly drawn) [Example 71, (S)-quinuclidin-3-yl (6-(2,5-dichlorophenyl)-2,2-dimethyl-2,3-dihydro-1H-inden-1-yl)carbamate], half-maximal inhibition (IC50) required 64.3 nM.
Still for that read-out and setting: the same measure for `COCCOc1ccc(-c2ccc3c(c2)C(NC(=O)O[C@@H]2CN4CCC2CC4)C(C)(C)C3)cc1` (stereo partly drawn) [Example 72, (S)-quinuclidin-3-yl (6-(4-(2-methoxyethoxy)phenyl)-2,2-dimethyl-2,3-dihydro-1H-inden-1-yl)carbamate]: 58.2 nM; for `CC1(C)Cc2cc(-c3ccc(F)cc3)ccc2C1NC(=O)O[C@@H]1CN2CCC1CC2` (stereo partly drawn) [Example 73, (S)-quinuclidin-3-yl (5-(4-fluorophenyl)-2,2-dimethyl-2,3-dihydro-1H-inden-1-yl)carbamate]: 26 nM.
As for `CC1(C)Cc2cc(-c3ccc(Cl)cc3)ccc2C1NC(=O)O[C@@H]1CN2CCC1CC2` (stereo partly drawn) [Example 74, (S)-quinuclidin-3-yl (5-(4-chlorophenyl)-2,2-dimethyl-2,3-dihydro-1H-inden-1-yl)carbamate], the IC50 amounted to 13 nM.
Still for that read-out and setting: the same measure for `CC1(C)Cc2cc(-c3ccc(C(F)(F)F)cc3)ccc2C1NC(=O)O[C@@H]1CN2CCC1CC2` (stereo partly drawn) [Example 75, (S)-quinuclidin-3-yl (2,2-dimethyl-5-(4-(trifluoromethyl)phenyl)-2,3-dihydro-1H-inden-1-yl)carbamate]: 8.3 nM; for `CC1(C)Cc2cc(-c3ccc(OC(F)(F)F)cc3)ccc2C1NC(=O)O[C@@H]1CN2CCC1CC2` (stereo partly drawn) [Example 76, (S)-quinuclidin-3-yl (2,2-dimethyl-5-(4-(trifluoromethoxy)phenyl)-2,3-dihydro-1H-inden-1-yl)carbamate]: 3.7 nM; for `CC1(C)Cc2cc(-c3cccc(F)c3)ccc2C1NC(=O)O[C@@H]1CN2CCC1CC2` (stereo partly drawn) [Example 77, (S)-quinuclidin-3-yl (5-(3-fluorophenyl)-2,2-dimethyl-2,3-dihydro-1H-inden-1-yl)carbamate]: 6.3 nM.
`CC1(C)Cc2cc(-c3cccc(Cl)c3)ccc2C1NC(=O)O[C@@H]1CN2CCC1CC2` (stereo partly drawn) [Example 78, (S)-quinuclidin-3-yl (5-(3-chlorophenyl)-2,2-dimethyl-2,3-dihydro-1H-inden-1-yl)carbamate]: half-maximal inhibition (IC50) required 3.5 nM.
In turn, `CC1(C)Cc2cc(-c3cccc(C(F)(F)F)c3)ccc2C1NC(=O)O[C@@H]1CN2CCC1CC2` (stereo partly drawn) [Example 79, (S)-quinuclidin-3-yl (2,2-dimethyl-5-(3-(trifluoromethyl)phenyl)-2,3-dihydro-1H-inden-1-yl)carbamate] registered an IC50 of 3.9 nM.
Still for that read-out and setting: in the case of `CC1(C)Cc2cc(-c3ccccc3F)ccc2C1NC(=O)O[C@@H]1CN2CCC1CC2` (stereo partly drawn) [Example 81, (S)-quinuclidin-3-yl (5-(2-fluorophenyl)-2,2-dimethyl-2,3-dihydro-1H-inden-1-yl)carbamate] it was 12.2 nM.
On the same count and under the same terms, in the case of `CC1(C)Cc2cc(-c3ccccc3Cl)ccc2C1NC(=O)O[C@@H]1CN2CCC1CC2` (stereo partly drawn) [Example 82, (S)-quinuclidin-3-yl (5-(2-chlorophenyl)-2,2-dimethyl-2,3-dihydro-1H-inden-1-yl)carbamate] it was 3.2 nM.
